Columns and labels:
Format in all cases: in vivo
[1] = test system: large crabgrass (Digitaria sanguinalis); test: Test B pre-/postemergence plant response; conditions: for Crabgrass, Large plant response rating: 8 g ai/ha
In short: (§1)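 Visual scoring from 0 (no effect) to 100 (complete control) against untreated controls was done 13 to 15 days after greenhouse treatment. Chemicals were formulated in a surfactant-containing non-phytotoxic solvent and applied to soil preemergence or to 1- to 4-leaf (2-18 cm) plants postemergence.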

[2] = test system: velvetleaf (Abutilon theophrasti); test: Test B pre-/postemergence plant response; conditions: for Velvetleaf plant response rating: 8 g ai/ha
In short: as §1

[3] = test system: bermudagrass (Cynodon dactylon); test: Test B pre-/postemergence plant response; conditions: for Bermudagrass plant response rating: 8 g ai/ha
In short: as §1

[4] = test system: goosegrass (Eleusine indica); test: Test B pre-/postemergence plant response; conditions: for Goosegrass plant response rating: 8 g ai/ha
In short: as §1

[5] = test system: pigweed (Amaranthus retroflexus); test: Test B pre-/postemergence plant response; conditions: for Pigweed plant response rating: 8 g ai/ha
In short: as §1

[6] = test system: catchweed bedstraw (Galium aparine); test: Test B pre-/postemergence plant response; conditions: Preemergence
In short: as §1

[7] = test system: morningglory (Ipomoea coccinea); test: Test B pre-/postemergence plant response; conditions: for Morningglory plant response rating: 8 g ai/ha
In short: as §1

[8] = test system: johnsongrass (Sorghum halepense); test: Test B pre-/postemergence plant response; conditions: for Johnsongrass plant response rating: 8 g ai/ha
In short: as §1

[9] = test system: giant foxtail (Setaria faberii); test: Test B pre-/postemergence plant response; conditions: for Foxtail, Giant plant response rating: 8 g ai/ha
In short: as §1

[10] = test system: lambsquarters (Chenopodium album); test: Test B pre-/postemergence plant response; conditions: for Lambsquarters plant response rating: 8 g ai/ha
In short: as §1

kochia (Kochia scoparia) = test: Test B pre-/postemergence plant response; conditions: for Kochia plant response rating: 8 g ai/ha
In short: as §1

[11] = test system: Italian ryegrass (Lolium multiflorum); test: Test B pre-/postemergence plant response; conditions: for Ryegrass, Italian plant response rating: 8 g ai/ha
In short: as §1

soybean (Glycine max) = test: Test B pre-/postemergence plant response; conditions: for Soybean plant response rating: 8 g ai/ha
In short: as §1

rice (Oryza sativa) = test: Test B flooded paddy test plant response
In short: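 Compounds were added directly to paddy water over 2-leaf-stage plants in pots flooded 3 cm above soil, water depth maintained. Visual injury scored against controls after 13 to 15 days in greenhouse, 0 (none) to 100 (complete control); dash indicates no result.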

[12] = Postemergence, 16 g ai/ha, scale 0 to 100
[13] = Postemergence, 31 g ai/ha, scale 0 to 100, 0 no effect, 100 complete control
[14] = Postemergence, 62 g ai/ha, scale 0 to 100, 0 no effect, 100 complete control
[15] = Preemergence, 16 g ai/ha, scale 0 to 100 (0 no effect, 100 complete control)
[16] = Preemergence, 31 g ai/ha, 0 to 100 scale, 0 no effect, 100 complete control
[17] = Preemergence, 62 g ai/ha, scale 0 to 100

## Cc1cc(-c2ccc(Cl)cc2)nn1-c1c(OC(=O)c2cccc(Cl)c2)cnn(C)c1=O [Compound 32]
[1]; postemergence, 0-100 scale
  Crabgrass, Large plant response rating: 60
[1]; [12]
  Plant response rating, Crabgrass, Large: 85
[1]; [13]
  Plant response rating, Crabgrass, Large: 95
[1]; [14]
  Plant response rating, Crabgrass, Large: 98
[1]; [15]
  Plant response rating, Crabgrass, Large: 85
[1]; [16]
  Plant response rating, Crabgrass, Large: 100
[1]; [17]
  Plant response rating, Crabgrass, Large: 100
[1]; Preemergence, scale 0 to 100
  Crabgrass, Large plant response rating: 20
[2]; postemergence, 0-100 scale
  Velvetleaf plant response rating: 0
[2]; [12]
  Plant response rating, Velvetleaf: 0
[2]; [14]
  Plant response rating, Velvetleaf: 0
[2]; [15]
  Plant response rating, Velvetleaf: 0
[2]; [16]
  Plant response rating, Velvetleaf: 0
[2]; [17]
  Plant response rating, Velvetleaf: 0
[2]; Preemergence, scale 0 to 100
  Velvetleaf plant response rating: 0
[3]; postemergence, 0-100 scale
  Bermudagrass plant response rating: 60
[3]; [12]
  Plant response rating, Bermudagrass: 65
[3]; [13]
  Plant response rating, Bermudagrass: 100
[3]; [14]
  Plant response rating, Bermudagrass: 100
[3]; Preemergence, scale 0 to 100 (0 no effect, 100 complete control)
  Bermudagrass plant response rating: 0
[3]; [15]
  Plant response rating, Bermudagrass: 0
[3]; [16]
  Plant response rating, Bermudagrass: 0
[3]; [17]
  Plant response rating, Bermudagrass: 0
[4]; postemergence, 0-100 scale
  Goosegrass plant response rating: 0
[4]; [12]
  Plant response rating, Goosegrass: 65
[4]; [13]
  Plant response rating, Goosegrass: 70
[4]; [14]
  Plant response rating, Goosegrass: 70
[4]; [15]
  Plant response rating, Goosegrass: 98
[4]; [16]
  Plant response rating, Goosegrass: 98
[4]; [17]
  Plant response rating, Goosegrass: 100
[4]; Preemergence, scale 0 to 100
  Goosegrass plant response rating: 60
[5]; postemergence, 0-100 scale
  Pigweed plant response rating: 0
[5]; [12]
  Plant response rating, Pigweed: 0
[5]; [13]
  Plant response rating, Pigweed: 0
[5]; [14]
  Plant response rating, Pigweed: 0
[5]; [15]
  Plant response rating, Pigweed: 0
[5]; [16]
  Plant response rating, Pigweed: 0
[5]; [17]
  Plant response rating, Pigweed: 0
[5]; Preemergence, scale 0 to 100
  Pigweed plant response rating: 0
[6]; 16 g ai/ha, scale 0 to 100 (0 no effect, 100 complete control)
  Plant response rating, Galium: 0
[6]; 31 g ai/ha, 0 to 100 scale, 0 no effect, 100 complete control
  Plant response rating, Galium: 0
[6]; 62 g ai/ha, scale 0 to 100
  Plant response rating, Galium: 0
[6]; 8 g ai/ha, scale 0 to 100
  Galium plant response rating: 0
[7]; postemergence, 0-100 scale
  Morningglory plant response rating: 0
[7]; [12]
  Plant response rating, Morningglory: 0
[7]; [13]
  Plant response rating, Morningglory: 0
[7]; [14]
  Plant response rating, Morningglory: 0
[7]; [15]
  Plant response rating, Morningglory: 0
[7]; [16]
  Plant response rating, Morningglory: 0
[7]; [17]
  Plant response rating, Morningglory: 0
[7]; Preemergence, scale 0 to 100
  Morningglory plant response rating: 0
[8]; postemergence, 0-100 scale
  Johnsongrass plant response rating: 50
[8]; [12]
  Plant response rating, Johnsongrass: 70
[8]; [13]
  Plant response rating, Johnsongrass: 98
[8]; [14]
  Plant response rating, Johnsongrass: 98
[8]; [15]
  Plant response rating, Johnsongrass: 75
[8]; [16]
  Plant response rating, Johnsongrass: 85
[8]; [17]
  Plant response rating, Johnsongrass: 90
[8]; Preemergence, scale 0 to 100
  Johnsongrass plant response rating: 65
[9]; postemergence, 0-100 scale
  Foxtail, Giant plant response rating: 75
[9]; [12]
  Plant response rating, Foxtail, Giant: 80
[9]; [13]
  Plant response rating, Foxtail, Giant: 98
[9]; [14]
  Plant response rating, Foxtail, Giant: 100
[9]; [15]
  Plant response rating, Foxtail, Giant: 95
[9]; [16]
  Plant response rating, Foxtail, Giant: 100
[9]; [17]
  Plant response rating, Foxtail, Giant: 100
[9]; Preemergence, scale 0 to 100
  Foxtail, Giant plant response rating: 85
[10]; postemergence, 0-100 scale
  Lambsquarters plant response rating: 0
[10]; [12]
  Plant response rating, Lambsquarters: 0
[10]; [13]
  Plant response rating, Lambsquarters: 0
[10]; [14]
  Plant response rating, Lambsquarters: 0
[10]; [15]
  Plant response rating, Lambsquarters: 0
[10]; [16]
  Plant response rating, Lambsquarters: 0
[10]; [17]
  Plant response rating, Lambsquarters: 0
[10]; Preemergence, scale 0 to 100
  Lambsquarters plant response rating: 0
Kochia (Kochia scoparia); postemergence, 0-100 scale
  Kochia plant response rating: 0
Kochia (Kochia scoparia); [12]
  Plant response rating, Kochia: 0
Kochia (Kochia scoparia); [13]
  Plant response rating, Kochia: 0
Kochia (Kochia scoparia); [14]
  Plant response rating, Kochia: 0
Kochia (Kochia scoparia); [15]
  Plant response rating, Kochia: 0
Kochia (Kochia scoparia); [16]
  Plant response rating, Kochia: 0
Kochia (Kochia scoparia); [17]
  Plant response rating, Kochia: 0
Kochia (Kochia scoparia); Preemergence, scale 0 to 100
  Kochia plant response rating: 0
[11]; postemergence, 0-100 scale
  Ryegrass, Italian plant response rating: 5
[11]; [12]
  Plant response rating, Ryegrass, Italian: 85
[11]; [13]
  Plant response rating, Ryegrass, Italian: 95
[11]; [14]
  Plant response rating, Ryegrass, Italian: 95
[11]; [15]
  Plant response rating, Ryegrass, Italian: 100
[11]; [16]
  Plant response rating, Ryegrass, Italian: 100
[11]; [17]
  Plant response rating, Ryegrass, Italian: 100
[11]; Preemergence, scale 0 to 100
  Ryegrass, Italian plant response rating: 90
Soybean (Glycine max); postemergence, 0-100 scale
  Soybean plant response rating: 0
Soybean (Glycine max); [12]
  Plant response rating, Soybean: 0
Soybean (Glycine max); [14]
  Plant response rating, Soybean: 0
Soybean (Glycine max); [15]
  Plant response rating, Soybean: 0
Soybean (Glycine max); [16]
  Plant response rating, Soybean: 0
Soybean (Glycine max); [17]
  Plant response rating, Soybean: 0
Soybean (Glycine max); Preemergence, scale 0 to 100
  Soybean plant response rating: 0
Rice (Oryza sativa); Flood (flooded paddy test), 62 g ai/ha, scale 0 to 100, 0 no effect, 100 complete control
  Plant response rating, Rice: 0
Rice (Oryza sativa); Flood (flooded paddy test), 125 g ai/ha, scale 0 to 100, 0 no effect, 100 complete control
  Plant response rating, Rice: 30
Rice (Oryza sativa); Flood (flooded paddy test), 250 g ai/ha, scale 0 to 100, 0 no effect, 100 complete control
  Plant response rating, Rice: 65
Rice (Oryza sativa); Flood, 31 g ai/ha, scale 0 to 100
  Plant response rating, Rice: 0

Source: patent US20100267561A1, “HERBICIDAL PYRIDAZINONE DERIVATIVES” (priority 2007, published 2010)
